In ChEMBL document CHEMBL5214910, “Rational Design of Dipicolylamine-Containing Carbazole Amphiphiles Combined with Zn2+ as Potent Broad-Spectrum Antibacterial Agents with a Membrane-Disruptive Mechanism” (J Med Chem, 2021):
Converted amounts (≈) assume the structure as drawn. The source made the active and inactive calls. No cut-off for these calls is given here.

How the values were obtained:
[1] = system: Escherichia coli; assay: Antibacterial activity against Escherichia coli ATCC 25922 assessed as inhibition of bacterial growth by measuring salt resistance incubated for 24 hrs in the presence of 12.5 ug/ml Zn2+ and 100 ug/ml Ca2+ by Muller hinton broth based dilution assay; assay type: functional
[2] = system: Lipopolysaccharide (LPS); assay: Displacement of BODIPY-TR-cadaverin from Pseudomonas aeruginosa Lipopolysaccharide at 16 times of MIC incubated for 30 mins in the presence of 12.5 ug/ml Zn2+ by fluorescence based microplate reader analysis relative to control
[3] = system: Acinetobacter baumannii; assay: Antibacterial activity against Acinetobacter baumannii ATCC 17978 assessed as inhibition of bacterial growth by measuring salt resistance incubated for 24 hrs in the presence of 12.5 ug/ml Zn2+ and 175.5 ug/ml K+ by Muller hinton broth based dilution assay; assay type: functional
[4] = system: Staphylococcus aureus; assay: Antibacterial activity against Methicillin-resistant Staphylococcus aureus NCTC10442 assessed as inhibition of bacterial growth incubated for 24 hrs in the presence of 12.5 ug/mL Zn2+ by Muller hinton broth based dilution assay; assay type: functional
[5] = system: Staphylococcus aureus; assay: Antibacterial activity against Staphylococcus aureus ATCC 29213 assessed as inhibition of bacterial growth by measuring salt resistance incubated for 24 hrs in the presence of 12.5 ug/ml Zn2+ and 3220 ug/ml Na+ by Muller hinton broth based dilution assay; assay type: functional
[6] = Ratio of MIC for antibacterial activity against Escherichia coli ATCC 25922 to MIC for antibacterial activity against Escherichia coli ATCC 25922 in the presence of Zn2+; assay type: functional
[7] = system: Lipopolysaccharide (LPS); assay: Displacement of BODIPY-TR-cadaverin from Pseudomonas aeruginosa Lipopolysaccharide at 1 times of MIC incubated for 30 mins by fluorescence based microplate reader analysis relative to control
[8] = Hemolytic activity in rabbit RBC incubated for 1 hrs in the presence of 12.5 ug/mL Zn2+ by fluorescence based microplate reader assay; assay type: toxicity, cell-based, Oryctolagus cuniculus, Erythrocyte; settings: rabbit red blood cells (erythrocytes)
[9] = system: Escherichia coli; assay: Antibacterial activity Escherichia coli ATCC 25922 assessed as inhibition of bacterial growth incubated for 24 hrs in the presence of 6.25 ug/mL Zn2+ by Muller hinton broth based dilution assay; assay type: functional
[10] = system: Staphylococcus aureus; assay: Antibacterial activity against Methicillin-resistant Staphylococcus aureus NCTC10442 assessed as inhibition of bacterial growth incubated for 24 hrs in the presence of 6.25 ug/mL Zn2+ by Muller hinton broth based dilution assay; assay type: functional
[11] = system: Escherichia coli; assay: Antibacterial activity against Escherichia coli ATCC 25922 assessed as log reduction in bacterial count at 8 times of MIC incubated for 30 mins in the presence of 12.5 ug/ml Zn2+ by Muller hinton agar based time kill assay; assay type: functional; settings: 0.5 h
[12] = Cytotoxicity against mouse NCTC clone 929 cells assessed as reduction in cell survival at 16 times to 32 times of MIC incubated for 24 hrs in the presence of 12.5 ug/ml of Zn2+ by CCK8 assay relative to control; assay type: toxicity, cell-based; settings: nctc clone 929, 24 h
[13] = system: Acinetobacter baumannii; assay: Antibacterial activity against Acinetobacter baumannii ATCC 17978 assessed as inhibition of bacterial growth by measuring salt resistance incubated for 24 hrs in the presence of 12.5 ug/ml Zn2+ and 24.3 ug/ml Mg2+ by Muller hinton broth based dilution assay; assay type: functional
[14] = Ratio of MIC for antibacterial activity against Acinetobacter baumannii ATCC 17978 to MIC for antibacterial activity against Acinetobacter baumannii ATCC 17978 in the presence of Zn2+; assay type: functional
[15] = system: Staphylococcus aureus; assay: Antibacterial activity against Methicillin-resistant Staphylococcus aureus N315 assessed as inhibition of bacterial growth incubated for 24 hrs by Muller hinton broth based dilution assay; assay type: functional
[16] = system: Escherichia coli; assay: Antibacterial activity Escherichia coli ATCC 25922 assessed as inhibition of bacterial growth incubated for 24 hrs in the presence of 25 ug/mL Zn2+ by Muller hinton broth based dilution assay; assay type: functional
[17] = system: Cell membrane; assay: Induction of cell membrane […] in Staphylococcus aureus ATCC 29213 assessed as increase in fluorescence intensity at 2 times to 8 times of MIC measured for 1 hrs in the presence of 12.5 ug/ml Zn2+ by DiSC3 (5) dye based assay; assay type: subcellular
[18] = system: Staphylococcus aureus; assay: Antibacterial activity against Methicillin-resistant Staphylococcus aureus NCTC10442 assessed as inhibition of bacterial growth by measuring salt resistance incubated for 24 hrs in the presence of 12.5 ug/ml Zn2+ and 100 ug/ml Ca2+ by Muller hinton broth based dilution assay; assay type: functional
[19] = system: Staphylococcus aureus; assay: Antibacterial activity against Methicillin-resistant Staphylococcus aureus N315 assessed as inhibition of bacterial growth by measuring salt resistance incubated for 24 hrs in the presence of 12.5 ug/ml Zn2+ and 175.5 ug/ml K+ by Muller hinton broth based dilution assay; assay type: functional
[20] = system: Staphylococcus aureus; assay: Antibacterial activity against Staphylococcus aureus ATCC 29213 assessed as inhibition of bacterial growth by measuring salt resistance incubated for 24 hrs in the presence of 12.5 ug/ml Zn2+ and 175.5 ug/ml K+ by Muller hinton broth based dilution assay; assay type: functional
[21] = system: Lipopolysaccharide (LPS); assay: Displacement of BODIPY-TR-cadaverin from Pseudomonas aeruginosa Lipopolysaccharide at 16 times of MIC incubated for 30 mins by fluorescence based microplate reader analysis relative to control
[22] = system: Cell membrane; assay: Induction of outer membrane permeabilization in Escherichia coli ATCC 25922 assessed as increase in fluorescence intensity at 2 times to 8 times MIC measured for 1 hrs in the presence of 12.5 ug/ml Zn2+ by NPN uptake assay; settings: DDE = dose-dependent effect
[23] = system: Staphylococcus aureus; assay: Antibacterial activity against Staphylococcus aureus ATCC 29213 assessed as inhibition of bacterial growth incubated for 24 hrs in the presence of 0.39 ug/mL Zn2+ by Muller hinton broth based dilution assay; assay type: functional
[24] = system: Staphylococcus aureus; assay: Antibacterial activity against Methicillin-resistant Staphylococcus aureus NCTC10442 assessed as inhibition of bacterial growth incubated for 24 hrs in the presence of 0.39 ug/mL Zn2+ by Muller hinton broth based dilution assay; assay type: functional
[25] = system: Staphylococcus aureus; assay: Antibacterial activity against Staphylococcus aureus ATCC 29213 assessed as inhibition of bacterial growth incubated for 24 hrs in the presence of […] ug/mL Zn2+ by Muller hinton broth based dilution assay; assay type: functional
[26] = system: Staphylococcus aureus; assay: Antibacterial activity against Staphylococcus aureus ATCC 29213 assessed as inhibition of bacterial growth by measuring salt resistance incubated for 24 hrs in the presence of 12.5 ug/ml Zn2+ and 24.3 ug/ml Mg2+ by Muller hinton broth based dilution assay; assay type: functional
[27] = system: Acinetobacter baumannii; assay: Antibacterial activity against Acinetobacter baumannii ATCC 17978 assessed as inhIbition of bacterial growth incubated for 24 hrs by Muller hinton broth based dilution assay; assay type: functional
[28] = system: Pseudomonas aeruginosa; assay: Antibacterial activity Pseudomonas aeruginosa ATCC 9027 assessed as inhibition of bacterial growth incubated for 24 hrs in the presence of 3.125 ug/mL Zn2+ by Muller hinton broth based dilution assay; assay type: functional
[29] = system: Lipopolysaccharide (LPS); assay: Displacement of BODIPY-TR-cadaverin from Pseudomonas aeruginosa Lipopolysaccharide at 4 times of MIC incubated for 30 mins by fluorescence based microplate reader analysis relative to control

CC(C)=CCn1c2ccccc2c2c(OCC(O)CN(Cc3ccccn3)Cc3ccccn3)cccc21 (centres undefined)
MIC [1]: 6.25 µg/mL
Activity [2]: 91%
MIC [3]: 0.78 µg/mL
MIC [4]: 1.56 µg/mL
MIC [5]: 1.56 µg/mL
Ratio [6]: 2
Activity [7]: -0.28%
HC50 at 1 h [8]: > 200 µg/mL
MIC [9]: 1.56 µg/mL
MIC [10]: 0.78 µg/mL
log(activity) [11]: 3.59
Activity [12]: 71.58%
MIC [13]: 1.56 µg/mL
Ratio [14]: 2
MIC [15]: 1.56 µg/mL (≈ 3.08 µM)
MIC [16]: 1.56 µg/mL
Activity [17]: Active
MIC [18]: 3.12 µg/mL
MIC [19]: 0.78 µg/mL
MIC [20]: 1.56 µg/mL
Activity [21]: 2.47%
Activity [22]: Dde
MIC [23]: 3.12 µg/mL
MIC [24]: 1.56 µg/mL
MIC [25]: 3.12 µg/mL
MIC [26]: 1.56 µg/mL
MIC [27]: 3.12 µg/mL (≈ 6.17 µM)
MIC [28]: 12.5 µg/mL
Activity [29]: -0.56%
